From patent publication US11407736B2 (priority 2019, dated 2022)
Read-outs that look alike come from different tables or passages of the source.

Tests used:
L929 cells = assay: L929 cell necroptosis assay (TNFa + zVAD, CellTiter-Glo); assay type: cell-based, murine; conditions: Mus musculus
Outline: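 Murine L929 cells, plated 18 h beforehand at 10K cells/well in RPMI 1640 with 10% FBS, were switched to medium containing 40 uM zVAD-fmk and given compound from 4-fold serial dilutions. Viability after 18 h of TNFa stimulation at 37° C was read by CellTiter-Glo luminescence.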

U937 cells = assay: U937 cell necroptosis assay (TNFa + zVAD, CellTiter-Glo); assay type: cell-based, human; conditions: Homo sapiens
Outline: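 Human U937 and murine L929 cells in RPMI 1640/10% FBS were pre-incubated 1 h at 37 °C with serially diluted compound plus zVAD-fmk (U937 plated with 60 uM, L929 medium with 40 uM), then stimulated with 2 ng/mL TNFa (final). Viability read by CellTiter-Glo luminescence after 18 h.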

RIPK1 = RIPK1 (Homo sapiens (Human), UniProt Q13546); assay: RIPK1 ADP-Glo biochemical kinase assay
Chain of RIPK1 (Q13546 whole entry, species assumed): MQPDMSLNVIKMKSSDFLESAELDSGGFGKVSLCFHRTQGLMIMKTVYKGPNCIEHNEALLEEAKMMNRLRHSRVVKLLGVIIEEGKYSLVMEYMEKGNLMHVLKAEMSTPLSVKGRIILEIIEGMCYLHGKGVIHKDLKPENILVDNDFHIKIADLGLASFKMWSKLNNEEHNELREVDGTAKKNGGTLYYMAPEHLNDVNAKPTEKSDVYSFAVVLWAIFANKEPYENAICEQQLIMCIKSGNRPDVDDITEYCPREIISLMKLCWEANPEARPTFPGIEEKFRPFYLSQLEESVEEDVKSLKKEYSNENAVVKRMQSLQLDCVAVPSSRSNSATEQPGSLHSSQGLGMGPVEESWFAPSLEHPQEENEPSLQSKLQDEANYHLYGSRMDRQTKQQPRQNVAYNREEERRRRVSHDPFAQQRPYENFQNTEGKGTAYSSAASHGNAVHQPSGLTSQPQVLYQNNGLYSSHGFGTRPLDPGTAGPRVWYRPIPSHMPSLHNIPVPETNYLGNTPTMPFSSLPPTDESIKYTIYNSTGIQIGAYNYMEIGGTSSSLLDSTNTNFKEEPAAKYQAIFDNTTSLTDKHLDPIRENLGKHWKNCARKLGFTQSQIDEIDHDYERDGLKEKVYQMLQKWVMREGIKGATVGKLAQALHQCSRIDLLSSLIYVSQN
Procedure: The final reaction volume was 5.0ul.
Adding 5 μl of ADP-Glo™ terminated the reaction.

[1] = L929, L929 cells, TNFa + zVAD, read-out: L929-CTG-recovery, L929, TNFa + zVAD (IC50)
[2] = U-937, U937 cells, TNFa + zVAD, read-out: U937 Zvad TNF CTG Recovery, U937, TNFa + zVAD (IC50)
[3] = read-out: RIPK1 ADP-Glo Kinase (IC50)
[4] = L929, read-out: L929-CTG-recovery, L929, TNFa + zVAD (IC50), L929 cells, TNFa + zVAD
[5] = U-937, read-out: U937 Zvad TNF CTG Recovery, U937, TNFa + zVAD (IC50), U937 cells, TNFa + zVAD
[6] = L929 cells, TNFa + zVAD, read-out: L929-CTG-recovery, L929, TNFa + zVAD (IC50)

| Structure (SMILES) | IC50 (RIPK1; [3]) | IC50 (L929 cells; [1]) | IC50 (U937 cells; [2]) | IC50 (L929 cells; [4]) | IC50 (U937 cells; [5]) | IC50 (L929 cells; [6]) | IC50 (RIPK1) |
| --- | --- | --- | --- | --- | --- | --- | --- |
| CN1C(=O)[C@@H](NC(=O)c2ncn(Cc3c(Cl)cccc3Cl)n2)COc2ccc(CN3CCN(c4ccncc4)CC3)cc21 [Compound I-21, (S)-1-(2,6-dichlorobenzyl)-N-(5-methyl-4-oxo-7-((4-(pyridin-4-yl)piperazin-1-yl)methyl)-2,3,4,5-tetrahydrobenzo[b][1,4]oxazepin-3-yl)-1H-1,2,4-triazole-3-carboxamide] | 77 nM | 1310 nM | 2.5 nM |  |  |  |  |
| CC(C)N1CC(O)(C#Cc2ccc3c(c2)N(C)C(=O)[C@@H](NC(=O)c2cc(Oc4ccccc4)ccn2)CO3)C1 [Compound I-195, (S)—N-(7-((3-hydroxy-1-isopropylazetidin-3-yl)ethynyl)-5-methyl-4-oxo-2,3,4,5-tetrahydrobenzo[b][1,4]oxazepin-3-yl)-4-phenoxypicolinamide] | 15.3 nM |  |  | 268 nM | 1.1 nM |  |  |
| CN1C(=O)[C@@H](NC(=O)c2cc(Oc3ccccc3)ccn2)COc2ccc(C#CC3(O)CN(C(=O)C(F)(F)F)C3)cc21 [Compound I-151, (S)—N-(7-((3-hydroxy-1-(2,2,2-trifluoroacetyl)azetidin-3-yl)ethynyl)-5-methyl-4-oxo-2,3,4,5-tetrahydrobenzo[b][1,4]oxazepin-3-yl)-4-phenoxypicolinamide] | 55.4 nM |  |  | 1080 nM | 17 nM |  |  |
| CN1C(=O)[C@@H](NC(=O)c2ncn(Cc3ccccc3)n2)COc2ccc(C#CC(C)(C)C)cc21 [Compound I-48, (S)-1-benzyl-N-(7-(3,3-dimethylbut-1-yn-1-yl)-5-methyl-4-oxo-2,3,4,5-tetrahydrobenzo[b][1,4]oxazepin-3-yl)-1H-1,2,4-triazole-3-carboxamide] | 62.4 nM |  | 1.6 nM |  |  | 0.5 nM |  |
| C=C(C)C#Cc1ccc2c(c1)N(C)C(=O)[C@@H](NC(=O)c1cc(Oc3ccccc3)ccn1)CO2 [Compound I-99, (S)—N-(5-methyl-7-(3-methylbut-3-en-1-yn-1-yl)-4-oxo-2,3,4,5-tetrahydrobenzo[b][1,4]oxazepin-3-yl)-4-phenoxypicolinamide] |  | 116 nM | 1.3 nM |  |  |  | 126 nM |
| CN1C(=O)[C@@H](NC(=O)c2n[nH]c(Cc3ccccc3)n2)COc2ccc(CCC(=O)Nc3ccc4cn[nH]c4c3)cc21 [Compound I-3, (S)—N-(7-(3-((1H-indazol-6-yl)amino)-3-oxopropyl)-5-methyl-4-oxo-2,3,4,5-tetrahydrobenzo[b][1,4]oxazepin-3-yl)-5-benzyl-1H-1,2,4-triazole-3-carboxamide] | 40.2 nM | 428 nM | 4.9 nM |  |  |  |  |
| CN1C(=O)[C@@H](NC(=O)c2cc(Oc3ccc(C#N)cc3)ccn2)COc2ccc(C#CC3(O)COC3)cc21 [II-19, (S)-4-(4-cyanophenoxy)-N-(7-((3-hydroxyoxetan-3-yl)ethynyl)-5-methyl-4-oxo-2,3,4,5-tetrahydrobenzo[b][1,4]oxazepin-3-yl)picolinamide] | 34.9 nM |  |  | 2890 nM | 55.5 nM |  |  |
| CN1C(=O)[C@@H](NC(=O)c2ncn(Cc3ccccc3)n2)COc2ccc(CN3CCn4ncnc4C3)cc21 [Compound I-25, (S)-1-benzyl-N-(7-((5,6-dihydro-[1,2,4]triazolo[1,5-a]pyrazin-7(8H)-yl)methyl)-5-methyl-4-oxo-2,3,4,5-tetrahydrobenzo[b][1,4]oxazepin-3-yl)-1H-1,2,4-triazole-3-carboxamide] | 51 nM | 490 nM | 2.7 nM |  |  |  |  |
| CN1C(=O)[C@@H](NC(=O)c2n[nH]c(Cc3ccccc3)n2)COc2ccc(CCC(=O)N3CCCC3)cc21 [Compound I-10, (S)-5-benzyl-N-(5-methyl-4-oxo-7-(3-oxo-3-(pyrrolidin-1-yl)propyl)-2,3,4,5-tetrahydrobenzo[b][1,4]oxazepin-3-yl)-1H-1,2,4-triazole-3-carboxamide] | 42.9 nM | 11200 nM | 7.9 nM |  |  |  |  |
| CN1C(=O)[C@@H](NC(=O)c2cc(Oc3ccccc3)ccn2)COc2ccc(N3CC4(CCOCC4)C3)cc21 [II-28, (S)—N-(5-methyl-4-oxo-7-(7-oxa-2-azaspiro[3.5]nonan-2-yl)-2,3,4,5-tetrahydrobenzo[b][1,4]oxazepin-3-yl)-4-phenoxypicolinamide] | 16.1 nM |  | 8.3 nM |  |  | 2220 nM |  |
| CCOC(=O)CCc1ccc2c(c1)N(C)C(=O)[C@@H](NC(=O)c1n[nH]c(Cc3ccccc3)n1)CO2 [Compound I-1, Ethyl (S)-3-(3-(5-benzyl-1H-1,2,4-triazole-3-carboxamido)-5-methyl-4-oxo-2,3,4,5-tetrahydrobenzo[b][1,4]oxazepin-7-yl)propanoate] | 19 nM | 2360 nM | 2.7 nM |  |  |  |  |
| CN1CC(F)(C#Cc2ccc3c(c2)N(C)C(=O)[C@@H](NC(=O)c2cc(Oc4ccccc4)ccn2)CO3)C1 [Compound I-146] | 17.3 nM |  |  | 18.3 nM | 0.4 nM |  |  |
| CN1C(=O)[C@@H](NC(=O)c2ncn(Cc3c(Cl)cccc3Cl)n2)COc2ccc(CCC(=O)N3CCCC3)cc21 [Compound I-18, (S)-1-(2,6-dichlorobenzyl)-N-(5-methyl-4-oxo-7-(3-oxo-3-(pyrrolidin-1-yl)propyl)-2,3,4,5-tetrahydrobenzo[b][1,4]oxazepin-3-yl)-1H-1,2,4-triazole-3-carboxamide] | 164 nM | 280 nM | 1.3 nM |  |  |  |  |

Continued, in another order:

| IC50 (RIPK1; [3]) | Structure (SMILES) | IC50 (L929 cells; [1]) | IC50 (U937 cells; [2]) | IC50 (L929 cells; [4]) | IC50 (U937 cells; [5]) | IC50 (L929 cells; [6]) | IC50 (RIPK1) |
| --- | --- | --- | --- | --- | --- | --- | --- |
| 101 nM | CN1C(=O)[C@@H](NC(=O)c2cc(Oc3ccccc3)ccn2)COc2ccc(C#Cc3cccc(C#N)n3)cc21 [II-33, (S)—N-(7-((6-cyanopyridin-2-yl)ethynyl)-5-methyl-4-oxo-2,3,4,5-tetrahydrobenzo[b][1,4]oxazepin-3-yl)-4-phenoxypicolinamide] | 33.1 nM | 1.8 nM |  |  |  |  |
| 133 nM | CN1C(=O)[C@@H](NC(=O)c2cc(Oc3ccc(F)cc3)ccn2)COc2ccc(C#CC(C)(C)C)cc21 [Compound I-101, (S)—N-(7-(3,3-dimethylbut-1-yn-1-yl)-5-methyl-4-oxo-2,3,4,5-tetrahydrobenzo[b][1,4]oxazepin-3-yl)-4-(4-fluorophenoxy)picolinamide] | 668 nM | 36.3 nM |  |  |  |  |
| 51.8 nM | CN1C(=O)[C@@H](NC(=O)c2cc(Oc3ccc(C#N)cc3)ccn2)COc2ccc(C#CC(C)(C)O)cc21 [II-18, (S)-4-(4-cyanophenoxy)-N-(7-(3-hydroxy-3-methylbut-1-yn-1-yl)-5-methyl-4-oxo-2,3,4,5-tetrahydrobenzo[b][1,4]oxazepin-3-yl)picolinamide] | 6640 nM | 286 nM |  |  |  |  |
| 17.5 nM | COC(=O)C#Cc1ccc2c(c1)N(C)C(=O)[C@@H](NC(=O)c1cc(Oc3ccccc3)ccn1)CO2 [Compound I-159, Methyl (S)-3-(5-methyl-4-oxo-3-(4-phenoxypicolinamido)-2,3,4,5-tetrahydrobenzo[b][1,4]oxazepin-7-yl)propiolate] | 16100 nM | 21 nM |  |  |  |  |
| 22.3 nM | CN1C(=O)[C@@H](NC(=O)c2n[nH]c(Cc3ccccc3)n2)COc2ccc(C#CCCCO)cc21 [Compound I-35, (S)-5-benzyl-N-(7-(5-hydroxypent-1-yn-1-yl)-5-methyl-4-oxo-2,3,4,5-tetrahydrobenzo[b][1,4]oxazepin-3-yl)-1H-1,2,4-triazole-3-carboxamide] | 17.8 nM | 3.1 nM |  |  |  |  |
| 85.4 nM | CN1C(=O)[C@@H](NC(=O)c2n[nH]c(Cc3ccc(F)cc3F)n2)COc2ccc(C#CC(C)(C)O)cc21 [Compound I-43, (S)-5-(2,4-difluorobenzyl)-N-(7-(3-hydroxy-3-methylbut-1-yn-1-yl)-5-methyl-4-oxo-2,3,4,5-tetrahydrobenzo[b][1,4]oxazepin-3-yl)-1H-1,2,4-triazole-3-carboxamide] | 0.9 nM | 3.8 nM |  |  |  |  |
| 35.7 nM | CN1C(=O)[C@@H](NC(=O)c2cc(Oc3ccccc3)ccn2)COc2ccc(C#CC3(O)CCOCC3)cc21 [Compound I-123, (S)—N-(7-((4-hydroxytetrahydro-2H-pyran-4-yl)ethynyl)-5-methyl-4-oxo-2,3,4,5-tetrahydrobenzo[b][1,4]oxazepin-3-yl)-4-phenoxypicolinamide] | 53.5 nM | 0.6 nM |  |  |  |  |
| 111 nM | CN1CCC(O)(C#Cc2ccc3c(c2)N(C)C(=O)[C@@H](NC(=O)c2cc(Oc4ccc(F)cc4)ccn2)CO3)CC1 [Compound I-135, (S)-4-(4-fluorophenoxy)-N-(7-((4-hydroxy-1-methylpiperidin-4-yl)ethynyl)-5-methyl-4-oxo-2,3,4,5-tetrahydrobenzo[b][1,4]oxazepin-3-yl)picolinamide] | 2630 nM | 224 nM |  |  |  |  |
| 56.5 nM | CN1C(=O)[C@@H](NC(=O)c2ncn(Cc3ccccc3)n2)COc2ccc(C#CCCOc3ccc4ncccc4c3)cc21 [Compound I-37, (S)-1-benzyl-N-(5-methyl-4-oxo-7-(4-(quinolin-6-yloxy)but-1-yn-1-yl)-2,3,4,5-tetrahydrobenzo[b][1,4]oxazepin-3-yl)-1H-1,2,4-triazole-3-carboxamide] | 0.2 nM | 1 nM |  |  |  |  |
